Laboratory results published in article PMC5298005 (Clinical Pharmacology in Drug Development, 2016).
Read-outs that look alike come from different tables or passages of the source. Marks after values point to notes of the source that are not given here. Values belong to the compound of their own block, whether it stands above or below them.

Legend:
[1] = format: in vivo, human (healthy subjects)
[2] = test system: CYP3A4; conditions: human liver microsomes expressing CYP3A4 in vitro; ref data on file; cited from earlier work
[3] = Phase 1 drug-interaction study, tacrolimus with isavuconazole: pharmacokinetics; format: in vivo, human (healthy subjects)
[4] = Treatment-emergent adverse events, cyclosporine study; format: in vivo, human (healthy subjects); conditions: TEAE during isavuconazole‐only administration
[5] = Phase 1 drug-interaction study, prednisone with isavuconazole: pharmacokinetics
[6] = Phase 1 drug-interaction study, sirolimus with isavuconazole: pharmacokinetics; format: in vivo, human (healthy subjects)
[7] = cited from earlier work
[8] = both, human, plasma, oral, 200 mg
[9] = isavuconazole + MMF vs isavuconazole alone
[10] = isavuconazole + cyclosporine vs isavuconazole alone
[11] = isavuconazole + tacrolimus vs isavuconazole alone
[12] = isavuconazole + sirolimus vs isavuconazole alone
[13] = MPAG after MMF 1 g single oral dose
[14] = MMF + isavuconazole vs MMF alone
[15] = MPA after MMF 1 g single oral dose
[16] = both, human, in vivo, po, 20 mg
[17] = prednisolone after prednisone 20 mg single oral dose
[18] = prednisone + isavuconazole vs prednisone alone
[19] = both, human, whole blood, po, 2 mg
[20] = sirolimus 2 mg single oral dose
[21] = both, human, whole blood, po, 5 mg
[22] = tacrolimus 5 mg single oral dose
[23] = tacrolimus + isavuconazole vs tacrolimus alone

- AUC0–∞ lower in the presence vs absence of isavuconazole [1, 13]: 24%
- AUClast lower in the presence vs absence of isavuconazole [1, 13]: 27%
- Cmax lower in the presence vs absence of isavuconazole [1, 13]: 32%
Structure (SMILES): COc1c(C)c2c(c(O[C@@H]3O[C@H](C(=O)O)[C@@H](O)[C@H](O)[C@H]3O)c1C/C=C(\C)CCC(=O)O)C(=O)OC2 [MPAG, mycophenolic acid phenyl glucuronide]

- CL/F ([1]; MMF 1 g single oral dose alone, plasma, n = 24, arithmetic mean (SD)): 11.5 (3.4) L/h
- AUC0–∞, Geometric Least‐Squares Mean Ratio, % (90%CI) [1, 14]: 135 (127, 145) %
- AUClast, Geometric Least‐Squares Mean Ratio, % (90%CI) [1, 14]: 132 (124, 141) %
- Cmax, Geometric Least‐Squares Mean Ratio, % (90%CI) [1, 14]: 89 (76, 103) %
- Cmax lower in the presence vs absence of isavuconazole [1, 15]: 11%
- Mean AUC0–∞ higher in the presence vs absence of isavuconazole [1, 15]: 35%
- Mean AUClast higher in the presence vs absence of isavuconazole [1, 15]: 32%
- Tmax ([1]; both, human, plasma, po, 1 g): 30 min
- half-life ([1]; both, human, plasma, po, 1 g): 756 min
Structure (SMILES): COc1c(C)c2c(c(O)c1C/C=C(\C)CCC(=O)O)C(=O)OC2 [Mycophenolic Acid, mycophenolic acid]

- AUC(0-inf) [5, 16]: 1650 ng·h/mL
- AUC(0-t) [5, 16]: 1640 ng·h/mL
- Cmax [5, 16]: 295 ng/mL
- Tmax [5, 16]: 1.5 h
- half-life [5, 16]: 174 min
- Cmax lower in the presence vs absence of isavuconazole [5, 17]: 4%
- Mean AUC0–∞ higher in the presence vs absence of isavuconazole [5, 17]: 8%
- Mean AUClast higher in the presence vs absence of isavuconazole [5, 17]: 8%
- AUC0–∞, Geometric Least‐Squares Mean Ratio, % (90%CI) [5, 18]: 108 (102, 114) %
- AUClast, Geometric Least‐Squares Mean Ratio, % (90%CI) [5, 18]: 108 (102, 114) %
- Cmax, Geometric Least‐Squares Mean Ratio, % (90%CI) [5, 18]: 96 (90, 102) %
Structure (SMILES): C[C@]12C=CC(=O)C=C1CC[C@@H]1[C@@H]2[C@@H](O)C[C@@]2(C)[C@H]1CC[C@]2(O)C(=O)CO [Prednisolone, prednisolone]

- AUC(0-inf) [6, 19]: 196 ng·h/mL
- AUC(0-t) [6, 19]: 152 ng·h/mL
- Cmax [6, 19]: 5.1 ng/mL
- half-life [6, 19]: 3.12 days
- Mean AUC0–∞ higher in the presence vs absence of isavuconazole [6, 20]: 84%
- Mean AUClast higher in the presence vs absence of isavuconazole [6, 20]: 108%
- Mean Cmax higher in the presence vs absence of isavuconazole [6, 20]: 65%
Structure (SMILES): CO[C@H]1C[C@@H]2CC[C@@H](C)[C@@](O)(O2)C(=O)C(=O)N2CCCC[C@H]2C(=O)O[C@H]([C@H](C)C[C@@H]2CC[C@@H](O)[C@H](OC)C2)CC(=O)[C@H](C)/C=C(\C)[C@@H](O)[C@@H](OC)C(=O)[C@H](C)C[C@H](C)/C=C/C=C/C=C/1C [Sirolimus, sirolimus]

- AUC(0-inf) [3, 21]: 313 ng·h/mL
- AUC(0-t) [3, 21]: 304 ng·h/mL
- Cmax [3, 21]: 26.7 ng/mL
- Mean AUC0–∞ higher in the presence vs absence of isavuconazole [3, 22]: 125%
- Mean AUClast higher in the presence vs absence of isavuconazole [3, 22]: 127%
- Mean Cmax higher in the presence vs absence of isavuconazole [3, 22]: 42%
- AUC0–∞, Geometric Least‐Squares Mean Ratio, % (90%CI) [3, 23]: 225 (191, 266) %
- AUClast, Geometric Least‐Squares Mean Ratio, % (90%CI) [3, 23]: 227 (192, 268) %
- Cmax, Geometric Least‐Squares Mean Ratio, % (90%CI) [3, 23]: 142 (122, 164) %
Structure (SMILES): C=CC[C@@H]1/C=C(\C)C[C@H](C)C[C@H](OC)[C@H]2O[C@@](O)(C(=O)C(=O)N3CCCC[C@H]3C(=O)O[C@H](/C(C)=C/[C@@H]3CC[C@@H](O)[C@H](OC)C3)[C@H](C)[C@@H](O)CC1=O)[C@H](C)C[C@@H]2OC [Tacrolimus, tacrolimus]

Continued, compound first:

Structure (SMILES): C[C@@H](c1nc(-c2ccc(C#N)cc2)cs1)[C@](O)(Cn1cncn1)c1cc(F)ccc1F [Isavuconazole, isavuconazole]
- AUCτ ([1]; MMF study, isavuconazole 200 mg QD alone, plasma, n = 22, arithmetic mean (SD)): 101.4 (37.6) μg·h/mL
- Cmax [1, 8]: 6500 ng/mL
- change of mean AUCτ of isavuconazole by coadministration with MMF ([1]; in vivo): unchanged
- mean Cmax of isavuconazole increased by coadministration with MMF ([1]; in vivo): 4%
- AUCτ, Geometric Least‐Squares Mean, % (90%CI) [1, 9]: 101 (98, 103) %
- Cmax, Geometric Least‐Squares Mean, % (90%CI) [1, 9]: 104 (100, 107) %
- AUC (both, human, in vivo, 200 mg): 108 µg·h/mL
- Cmax (both, human, in vivo, 200 mg): 5700 ng/mL
- AUCτ, Geometric Least‐Squares Mean, % (90%CI) [10]: 103 (100, 106) %
- Cmax, Geometric Least‐Squares Mean, % (90%CI) [10]: 130 (121, 139) %
- isavuconazole metabolized [2]: 66.2%
- AUC [3, 8]: 89800 ng·h/mL
- Cmax [3, 8]: 4900 ng/mL
- mean AUCτ of isavuconazole higher in the presence of tacrolimus ([3]; in vivo): 12%
- mean Cmax of isavuconazole higher in the presence of tacrolimus ([3]; in vivo): 26%
- AUCτ, Geometric Least‐Squares Mean, % (90%CI) [3, 11]: 112 (110, 115) %
- Cmax, Geometric Least‐Squares Mean, % (90%CI) [3, 11]: 126 (118, 134) %
- blood creatinine ([4]; 1 subject, day 15, 0.9 mg/dL on day –1): 1.4 mg/dL
- blood creatinine ([4]; second subject, by day 14, baseline 1.3 mg/dL): 1.4 mg/dL
- AUC ([5]; both, human, in vivo, 200 mg): 88200 ng·h/mL
- Cmax ([5]; both, human, in vivo, 200 mg): 5600 ng/mL
- Tmax ([5]; both, human, in vivo, 200 mg): 2 h
- AUC [6, 8]: 92000 ng·h/mL
- Tmax [6, 8]: 2 h
- mean AUCτ of isavuconazole higher in the presence of sirolimus ([6]; in vivo): 11%
- mean Cmax of isavuconazole higher in the presence of sirolimus ([6]; in vivo): 4%
- AUCτ, Geometric Least‐Squares Mean, % (90%CI) [6, 12]: 111 (109, 114) %
- Cmax, Geometric Least‐Squares Mean, % (90%CI) [6, 12]: 104 (100, 108) %

Structure (SMILES): CCC(C)n1ncn(-c2ccc(N3CCN(c4ccc(OCC5COC(Cn6cncn6)(c6ccc(Cl)cc6Cl)O5)cc4)CC3)cc2)c1=O (stereo not drawn) [Itraconazole, itraconazole]
- Fold increase in trough concentrations of cyclosporine ([7]; cyclosporine coadministered with itraconazole): ↑ 2.7 ^b ^,13 fold
- Fold increase in trough concentrations of tacrolimus ([7]; tacrolimus coadministered with itraconazole): ↑ 5.6 ^b ^,13 fold

Structure (SMILES): CC[C@@H]([C@H](C)O)n1ncn(-c2ccc(N3CCN(c4ccc(OC[C@@H]5CO[C@@](Cn6cncn6)(c6ccc(F)cc6F)C5)cc4)CC3)cc2)c1=O [Posaconazole, posaconazole]
- Fold increase in area under the plasma concentration‐time curve of sirolimus ([7]; sirolimus coadministered with posaconazole): ↑ 7.9 ^a ^,14 fold
- Fold increase in area under the plasma concentration‐time curve of tacrolimus ([7]; tacrolimus coadministered with posaconazole): ↑ 3.6 ^a ^,14 fold

Structure (SMILES): C[C@@H](c1ncncc1F)[C@](O)(Cn1cncn1)c1ccc(F)cc1F [Voriconazole, voriconazole]
- Fold increase in area under the plasma concentration‐time curve of cyclosporine ([7]; cyclosporine coadministered with voriconazole): ↑ 1.7 ^a ^,7 fold
- Fold increase in area under the plasma concentration‐time curve of sirolimus ([7]; sirolimus coadministered with voriconazole): ↑ 11 ^a ^,7 fold
- Fold increase in area under the plasma concentration‐time curve of tacrolimus ([7]; tacrolimus coadministered with voriconazole): ↑ 3 ^a ^,7 fold
- effect of coadministration on MPA AUC ([7]; voriconazole coadministration, ref VFEND package insert): no significant effect
